The target of experiment [1] is T1, α1AR-D4.4R (D4.4R read-out) (Homo sapiens, UniProt P21917).
T1 construct: gene DRD4; D4.4R (non-fused) co-expressed with alpha1AR in HEK-293T; alpha1AR non-fused in Gi assay, alpha1AR-YFP in beta-arrestin-2 assay; with Alpha-1A adrenergic receptor
T1 sequence (P21917 1-419): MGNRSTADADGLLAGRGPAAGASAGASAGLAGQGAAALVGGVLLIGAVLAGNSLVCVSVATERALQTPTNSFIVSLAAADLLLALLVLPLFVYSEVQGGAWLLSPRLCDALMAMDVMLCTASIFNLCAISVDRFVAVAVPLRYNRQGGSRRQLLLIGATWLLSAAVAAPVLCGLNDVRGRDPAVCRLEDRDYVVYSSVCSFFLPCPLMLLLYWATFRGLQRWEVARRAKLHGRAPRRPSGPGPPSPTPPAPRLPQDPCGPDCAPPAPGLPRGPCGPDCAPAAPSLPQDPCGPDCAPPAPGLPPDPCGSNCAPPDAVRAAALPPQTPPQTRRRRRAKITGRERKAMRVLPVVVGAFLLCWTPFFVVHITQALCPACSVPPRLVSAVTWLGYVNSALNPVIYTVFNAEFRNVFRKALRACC
T1 sequence (P35348 1-466 partner): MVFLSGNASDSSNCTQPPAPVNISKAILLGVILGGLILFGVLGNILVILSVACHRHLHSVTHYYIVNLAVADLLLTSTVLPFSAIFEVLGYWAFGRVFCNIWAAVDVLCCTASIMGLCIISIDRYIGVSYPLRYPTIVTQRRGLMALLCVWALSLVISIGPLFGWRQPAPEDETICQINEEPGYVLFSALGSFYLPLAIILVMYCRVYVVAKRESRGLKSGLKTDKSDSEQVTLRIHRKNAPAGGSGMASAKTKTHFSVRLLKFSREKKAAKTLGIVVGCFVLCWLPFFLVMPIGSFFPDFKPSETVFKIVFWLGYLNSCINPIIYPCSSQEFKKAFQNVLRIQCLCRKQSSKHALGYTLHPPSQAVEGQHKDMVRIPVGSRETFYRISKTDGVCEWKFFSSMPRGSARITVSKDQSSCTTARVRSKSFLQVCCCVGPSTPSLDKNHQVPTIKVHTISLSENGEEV
The experiment in a line: BRET beta-arrestin-2-Rluc recruitment to alpha1AR-YFP in HEK-293T. It counts as cell-based. The source says: BRET beta-arrestin-2-Rluc recruitment to alpha1AR-YFP in HEK-293T on α1AR-D4.4R (D4.4R read-out)

Experiment [2] concerns the target human dopamine D4 receptor, polymorphic variant D4.4R, fused to Rluc (human) (UniProt P21917). The experiment in a line: FRET or BRET; BRET saturation in intact HEK-293T cells: constant amount of cDNA of the Rluc-fused receptor, increasing amounts of cDNA of the YFP-fused receptor; coelenterazine H 5 μM; HBSS with 0.1% glucose; single-phase saturation fit.
The target of a further experiment is T2, D4.4R (Homo sapiens, UniProt P21917).
T2 construct: gene DRD4; non-fused full-length human D4.4R in pcDNA3.1, transiently expressed in HEK-293T without alpha1AR; Galphai1-Rluc, Ggamma2-YFP and Gbeta1 reporters co-transfected
T2 sequence (P21917 1-419): T1 sequence (P21917 1-419)
It counts as cell-based. The settings on record: antagonist 1 μM, added 10 min before dopamine; D4.4R alone.

Experiment [3] has as its target T3, α1AR (Homo sapiens, UniProt P35348).
T3 construct: gene ADRA1A; non-fused full-length human alpha1AR in pcDNA3.1, transiently expressed in HEK-293T without D4R; Galphaq-Rluc or Galphas-Rluc, Ggamma2-YFP and Gbeta1 reporters co-transfected
T3 sequence (P35348 1-466): T1 sequence (P35348 1-466 partner)
It counts as cell-based. The settings on record: antagonist 1 μM, added 10 min before A61603; alpha1AR alone.

Experiment [4] deals with T3, α1AR. The experiment can be described thus: BRET Gq and Gs activation in HEK-293T. It counts as cell-based. The settings on record: agonist; alpha1AR alone; 10 μM dopamine; intact cells. For orientation: Bioluminescence resonance energy transfer reports proximity on the nanometre scale.
In experiment [5] the target is human α1A adrenoreceptor fused to Rluc (human) (UniProt P35348). The experiment in a line: FRET or BRET; BRET saturation in intact HEK-293T cells: constant amount of cDNA of the Rluc-fused receptor, increasing amounts of cDNA of the YFP-fused receptor; coelenterazine H 5 μM; HBSS with 0.1% glucose; single-phase saturation fit.

From PMC10533593 (Molecular Neurobiology, 2023) come the findings set out here.

As for `Cc1cccc(NC(=O)CN2CCC(c3ccccn3)CC2)c1` [A412997], the EC50 in experiment [1] turned out to be 30 ± 19 nM. As for “human α1A adrenoreceptor fused to YFP (from UniProt P35348 1-466)”, in experiment [2], the BRET50 stood at 33. Turning to `Clc1ccc(N2CCN(Cc3c[nH]c4ncccc34)CC2)cc1` [L745870], the “BRET Gi1 activation in HEK-293T, antagonism of dopamine” value at D4.4R is “the selective D4R antagonist L745870, but not the α1AR antagonist prazosin, antagonized the effect of dopamine”. `COc1cc2nc(N3CCN(C(=O)c4ccco4)CC3)nc(N)c2cc1OC` [prazosin]: at α1AR [3], the “BRET Gq and Gs activation in HEK-293T, antagonism of A61603” value is “the effect of A61603 was counteracted by prazosin”. With `NCCc1ccc(O)c(O)c1` [dopamine], the “% of norepinephrine effect at 10 μM” value at α1AR [4] is < 50%. In turn, “human dopamine D4 receptor, polymorphic variant D4.7R, fused to YFP” yielded a BRET50 in experiment [5] of 25.

Usually EC50 stands for the concentration at which the effect is half-maximal.
